From ChEMBL document CHEMBL1201862, “PubChem BioAssay data set” (2004)
“And” between values parts separate entries of the source, which are not always exact repeats. Equal entries are not always repeated. The source made the active and inactive calls.

Legend:
[1] = target: T1, Histone-lysine N-methyltransferase NSD2 (Homo sapiens, UniProt O96028); format: biochemical
T1 sequence (O96028 whole entry): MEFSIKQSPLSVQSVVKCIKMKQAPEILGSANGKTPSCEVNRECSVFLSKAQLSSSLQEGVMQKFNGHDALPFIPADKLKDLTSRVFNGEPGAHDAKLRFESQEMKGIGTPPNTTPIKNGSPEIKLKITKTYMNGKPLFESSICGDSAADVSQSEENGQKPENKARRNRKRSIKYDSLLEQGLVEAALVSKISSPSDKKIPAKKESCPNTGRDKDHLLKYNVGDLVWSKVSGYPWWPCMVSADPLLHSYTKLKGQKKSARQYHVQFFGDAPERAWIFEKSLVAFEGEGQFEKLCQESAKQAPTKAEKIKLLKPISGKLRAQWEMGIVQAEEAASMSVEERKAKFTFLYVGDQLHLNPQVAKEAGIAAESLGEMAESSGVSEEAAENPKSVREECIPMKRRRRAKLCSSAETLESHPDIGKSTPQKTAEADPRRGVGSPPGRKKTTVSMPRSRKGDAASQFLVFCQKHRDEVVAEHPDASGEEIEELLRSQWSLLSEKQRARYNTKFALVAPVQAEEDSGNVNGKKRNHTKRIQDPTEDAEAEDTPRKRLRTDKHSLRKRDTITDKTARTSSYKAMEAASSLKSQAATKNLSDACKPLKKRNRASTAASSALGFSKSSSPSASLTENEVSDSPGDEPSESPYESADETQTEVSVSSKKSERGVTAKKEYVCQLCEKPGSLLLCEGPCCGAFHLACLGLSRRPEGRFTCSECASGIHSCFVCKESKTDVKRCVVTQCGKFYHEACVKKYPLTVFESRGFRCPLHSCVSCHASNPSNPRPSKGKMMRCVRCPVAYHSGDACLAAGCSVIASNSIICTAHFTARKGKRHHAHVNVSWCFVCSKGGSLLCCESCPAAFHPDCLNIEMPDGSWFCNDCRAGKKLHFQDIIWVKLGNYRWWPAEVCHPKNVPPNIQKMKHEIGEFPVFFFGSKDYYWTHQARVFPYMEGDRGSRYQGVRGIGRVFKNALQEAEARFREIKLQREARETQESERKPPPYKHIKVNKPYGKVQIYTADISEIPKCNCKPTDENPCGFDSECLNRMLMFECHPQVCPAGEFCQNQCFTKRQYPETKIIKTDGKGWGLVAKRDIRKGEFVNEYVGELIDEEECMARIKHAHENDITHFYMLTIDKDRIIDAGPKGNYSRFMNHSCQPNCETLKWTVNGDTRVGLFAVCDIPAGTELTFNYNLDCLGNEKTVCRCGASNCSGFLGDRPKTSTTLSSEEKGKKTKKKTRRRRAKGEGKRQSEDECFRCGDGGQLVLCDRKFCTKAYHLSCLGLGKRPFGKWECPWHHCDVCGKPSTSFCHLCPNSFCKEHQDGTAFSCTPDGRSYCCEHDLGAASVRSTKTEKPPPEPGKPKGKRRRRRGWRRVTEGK

Caspase-3 = target: T2, Caspase-3 (Homo sapiens, UniProt P42574); format: functional;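 further: Dose-response selectivity test against caspase-3 for candidate inhibitors of sentrin-specific proteases (SENPs)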
T2 sequence (P42574 whole entry): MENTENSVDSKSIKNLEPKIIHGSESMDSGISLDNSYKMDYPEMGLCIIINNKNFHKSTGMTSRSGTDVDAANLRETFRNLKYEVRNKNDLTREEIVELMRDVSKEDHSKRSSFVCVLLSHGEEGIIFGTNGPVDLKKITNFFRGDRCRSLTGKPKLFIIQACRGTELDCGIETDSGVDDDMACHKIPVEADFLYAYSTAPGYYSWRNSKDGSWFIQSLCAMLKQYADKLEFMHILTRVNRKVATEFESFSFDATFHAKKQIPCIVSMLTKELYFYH

[2] = target: T3, Tyrosyl-DNA phosphodiesterase 2 (Homo sapiens, UniProt O95551); assay: human TDP2 enzyme inhibitors, dose response, biochemical, epi absorbance, IC50 (AID 743297)
T3 sequence (O95551 whole entry): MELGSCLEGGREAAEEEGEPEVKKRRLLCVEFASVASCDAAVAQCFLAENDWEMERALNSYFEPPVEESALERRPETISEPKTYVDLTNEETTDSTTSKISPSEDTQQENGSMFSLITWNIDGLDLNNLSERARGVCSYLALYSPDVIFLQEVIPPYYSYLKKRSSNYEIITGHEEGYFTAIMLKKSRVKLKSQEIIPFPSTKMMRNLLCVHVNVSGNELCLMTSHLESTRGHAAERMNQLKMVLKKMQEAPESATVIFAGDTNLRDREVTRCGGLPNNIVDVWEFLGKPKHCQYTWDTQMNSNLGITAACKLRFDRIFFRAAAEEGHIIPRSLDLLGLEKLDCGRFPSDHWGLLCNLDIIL

[3] = target: T4, Sentrin-specific protease 8 (Homo sapiens, UniProt Q96LD8); format: functional;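 further: luminescence read-out of SENP8 inhibition, dose-response confirmation following an ultra-high-throughput screen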
T4 sequence (Q96LD8 whole entry): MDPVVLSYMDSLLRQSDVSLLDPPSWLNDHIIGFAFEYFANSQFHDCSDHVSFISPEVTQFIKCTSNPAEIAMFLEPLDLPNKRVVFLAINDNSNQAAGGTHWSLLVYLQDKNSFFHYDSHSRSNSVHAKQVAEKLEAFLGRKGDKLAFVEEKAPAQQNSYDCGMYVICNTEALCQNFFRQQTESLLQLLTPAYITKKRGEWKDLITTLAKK

Row | SMILES | AC50 [1] | IC50 (Caspase-3) | IC50 [2] | IC50 [3]
1 | CCN1/C(=C/c2ccc3cc(C)ccc3[n+]2CC)Sc2cc(C)c(C)cc21 | 19.5 µM (active) and 8.3 µM (active) | – | – | –
2 | COc1ccc(C(=O)Nc2nc3c(s2)Cc2cc(OC)ccc2-3)cc1 | – | 3.45 µM (active) | 11.2 µM (inactive) | 2.29 µM (active)
3 | Cc1oc2c(c1C(=O)c1ccccc1)C(=O)C(=O)c1ccccc1-2 | 14.3 µM (active) | 29.3 µM (active) | 14.2 µM (inactive) | 12.8 µM (active)
4 | O=C1CCCC2=C1C1(O)C(=O)c3ccccc3C1(O)O2 (stereo not given) | – | – | 8.01 µM (active) | –
5 | O=C1C(Cl)=C(NCCN2CCCCC2)C(=O)c2ccccc21 | 6.54 µM (active) | – | – | –
6 | COc1cc(NCCCNC(C)C)c2nccc(C)c2c1 | 9.71 µM (active) | – | > 128 µM (inactive) | –
7 | CC(/C=C1\SC(=S)N(NS(=O)(=O)c2ccccc2)C1=O)=C\c1ccccc1 | 13 µM (active) | 7.87 µM (active) | – | 2.86 µM (active)
